Source: patent publication US20110251238A1, “PPAR AGONIST COMPOSITIONS AND METHODS OF USE” (BIOPHARMED, priority 2008, published 2011)

Tests used:
Hs683 (human glioma) = assay: Growth inhibition, MTT colorimetric assay, HS683; format: cell-based; conditions: Homo sapiens, Hs 683, 72 h; glioma; 3 days with drug; means of six values; unit inferred; read-out: IC50 HS683
In short: (§1)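 Human tumour cell lines were exposed to compounds for 3 days. Proliferation inhibition was read by MTT colorimetric assay and expressed as IC50. Values are means of six determinations.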

[1] = tested on: orthotopic grafts of human glioblastoma cell lines; assay: Orthotopic grafts of human glioblastoma cell lines in brains of nude mice, survival; format: in vivo; conditions: FIG. 1
Description: Additional in vivo experiments were carried on nude mice. Briefly, orthotopic grafts of human glioblastoma cell lines were implanted into the brains of nude mice according to the general methodology of Branle et al., (2002) Cancer, 95, 641-655) and Lefranc et al., (2004) Clin. Can. Res., 10, 8250-8265. […] Results are shown in FIG. 1, illustrating the comparative activity of the PPAR agonist BPM18,708 and the reference drug Temodar™ (temozolomide) the only FDA approved drug for glioblastoma grade IV.

[2] = tested on: MCF-7 (epithelial breast cancer); assay: Growth inhibition, MTT colorimetric assay, MCF7; format: cell-based; conditions: Homo sapiens, MCF7, 72 h; carcinoma; 3 days with drug; means of six values; unit inferred; read-out: IC50 MCF7
In short: as §1

RhTP (rhabdomyosarcoma) = assay: Growth inhibition, MTT colorimetric assay, RhTp; format: cell-based; conditions: 72 h; 3 days with drug; means of six values; unit inferred; read-out: IC50 RhTp
In short: (§2)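 MTT colorimetric measurement of proliferation gives the IC50, averaged from six separate values. Drug exposure lasted 3 days.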

U138 MG (human glioma) = assay: Growth inhibition, MTT colorimetric assay, U138; format: cell-based; conditions: Homo sapiens, U138-MG, 72 h; glioma; 3 days with drug; means of six values; unit inferred; read-out: IC50 U138
In short: (§3)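 3-day continuous drug exposure; MTT readout; IC50 = mean of 6 values, SE <5% of mean.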

T98G (glioblastoma) = assay: cells; format: cell-based; conditions: Homo sapiens, T98G, 72 h; glioma; 3 days with drug; means of six values; unit inferred; read-out: IC50 T98G
In short: as §1

B16-F10 (mouse melanoma) = assay: Growth inhibition, MTT colorimetric assay, B16F10; format: cell-based; conditions: Mus musculus, B16-F10, 72 h; melanoma; 3 days with drug; means of six values; unit inferred; read-out: IC50 B16F10
In short: as §3

[3] = tested on: U373 (human glioblastoma-astrocytoma); assay: Growth inhibition, MTT colorimetric assay, U373; format: cell-based; conditions: Homo sapiens, U373 MG, 72 h; glioma; 3 days with drug; means of six values; unit inferred; read-out: IC50 U373
In short: as §3

caspases 9 = assay: Caspases 9 activation in HL60 cells (LEHD reagent); format: cell-based, human; conditions: 48 hours, 1 μM, 0.1 μM and 0.01 μM
Source text: (§4) 7223, using standard commercially available diagnostic kits (Calbiochem, USA). Assay reagents used were DEVD for caspases 3/7, […] for caspases 8, and LEHD for caspases 9. Moreover, colchicine was used as reference compound that induces this activity of caspases.

Host = assay: Growth inhibition, MTT colorimetric assay, Host; format: cell-based; conditions: 72 h; 3 days with drug; means of six values; unit inferred; read-out: IC50 Host
In short: as §2

LoVo (colon cancer) = assay: Growth inhibition, MTT colorimetric assay, LoVo; format: cell-based; conditions: Homo sapiens, LoVo, 72 h; carcinoma; 3 days with drug; means of six values; unit inferred; read-out: IC50 LoVo
In short: as §1

GL19 = assay: Growth inhibition, MTT colorimetric assay, GL19; format: cell-based; conditions: GL19, 72 h; 3 days with drug; means of six values; unit inferred; read-out: IC50 GL19
In short: as §2

PPARγ = target: T1, PPARγ (Homo sapiens, UniProt P37231); assay: PPAR in vitro cellular (transactivation) assay in MCF-7 cells; format: cell-based
T1 construct: endogenous in cells; host or cells: MCF-7
Description: Compounds BPM18,708 and BPM19,107 were selected as representative analogues and tested in a PPAR in vitro cellular assay. Thiazolidinediones rosiglitazone and troglitazone were used as reference PPARγ agonists.
For transfection experiments, MCF-7 cells were cultured in six-well plates in 2 ml DMEM:F12 supplemented with 5% FBS. When cells were 50-60% confluent, siRNA duplexes and/or reporter gene constructs were transfected using OligofectAMINE reagent (Invitrogen). According to methods described in previous studies siRNAs were transfected in each well to give a final concentration of 70 nM. Cells were harvested in 48-56 h after transfection by manual scraping in lysis buffer (Promega). Whole cell extracts were frozen in liquid nitrogen for 30 s, vortexed by 30 s, and centrifuged to give lysates cell lysates from this experiment were analyzed for PPARγ protein by Western blot analysis. Relative intensities of the PPARγ protein were compared with a nonspecific band and results of three replicate studies were determined in the various treatment groups.
Whole cell lysates were extracted using Western sampling buffer. Protein samples were heated at 100 C for 5 min, separated on 10% SDS-PAGE and transferred to polyvinylidene difluoride (PVDF) membrane (Amersham Pharmacia Biotech, Piscataway, N.J.). […]

caspases 8 = assay: Caspases 8 activation in HL60 cells (IEDT reagent); format: cell-based, human; conditions: 48 hours, 1 μM, 0.1 μM and 0.01 μM
Source text: as §4

T1 sequence (P37231 whole entry): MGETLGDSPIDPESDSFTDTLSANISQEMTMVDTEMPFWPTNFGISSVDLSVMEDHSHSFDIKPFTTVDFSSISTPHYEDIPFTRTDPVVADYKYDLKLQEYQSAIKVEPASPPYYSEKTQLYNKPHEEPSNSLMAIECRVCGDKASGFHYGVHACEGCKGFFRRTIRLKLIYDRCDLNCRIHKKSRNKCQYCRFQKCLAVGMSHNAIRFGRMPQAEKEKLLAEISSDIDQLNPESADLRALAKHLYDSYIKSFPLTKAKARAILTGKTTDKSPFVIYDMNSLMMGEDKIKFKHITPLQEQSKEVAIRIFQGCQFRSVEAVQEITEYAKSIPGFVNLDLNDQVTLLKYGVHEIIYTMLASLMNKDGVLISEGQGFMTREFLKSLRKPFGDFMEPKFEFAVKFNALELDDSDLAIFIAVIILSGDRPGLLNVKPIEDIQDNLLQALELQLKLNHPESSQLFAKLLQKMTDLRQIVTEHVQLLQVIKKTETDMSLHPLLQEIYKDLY

For `Oc1ccc(CN(Cc2ccc(C(F)(F)F)cc2)Cc2ccc(O)c3ncccc23)c2cccnc12` [BPM18,708, 5,5′-(4-(trifluoromethyl)benzylazanediyl)bis(methylene)diquinolin-8-ol], the IC50 (Hs683 (human glioma)) was 10 nM, the “in vivo activity (survival) compared with Temodar” value [1] was “at least as active as Temodar™” and the IC50 [2] was 34 nM. For the same compound, the IC50 (RhTP (rhabdomyosarcoma)) was 81 nM, the IC50 (U138 MG (human glioma)) was 49 nM and the IC50 (T98G (glioblastoma)) was 99 nM. The IC50 (B16-F10 (mouse melanoma)) was 92 nM, the IC50 [3] was 44 nM and the “activation of caspases 9” value (caspases 9) was “no effect”. The IC50 (Host) was 97 nM, the IC50 (LoVo (colon cancer)) was 10 nM and the IC50 (GL19) was 1240 nM. For the same compound, the “PPARγ ligand/agonist activity in transactivation assays” value (PPARγ) was “ligands and agonists of PPARγ” and the “activation of caspases 8” value (caspases 8) was “no effect”.
